Measured values reported in US20250313900A1, “COMPOSITIONS AND THERAPEUTIC AGENTS FOR MODULATING INFLAMMATORY RESPONSES ON BOTH TUMOR AND IMMUNE CELLS” (THE METHODIST HOSPITAL, priority 2022, published 2025).

T1: Tumor necrosis factor receptor-associated factor-6 (TRAF6) (in HCC827-CT cells) (human, UniProt Q9Y4K3 1-522)
T1 sequence (looked up): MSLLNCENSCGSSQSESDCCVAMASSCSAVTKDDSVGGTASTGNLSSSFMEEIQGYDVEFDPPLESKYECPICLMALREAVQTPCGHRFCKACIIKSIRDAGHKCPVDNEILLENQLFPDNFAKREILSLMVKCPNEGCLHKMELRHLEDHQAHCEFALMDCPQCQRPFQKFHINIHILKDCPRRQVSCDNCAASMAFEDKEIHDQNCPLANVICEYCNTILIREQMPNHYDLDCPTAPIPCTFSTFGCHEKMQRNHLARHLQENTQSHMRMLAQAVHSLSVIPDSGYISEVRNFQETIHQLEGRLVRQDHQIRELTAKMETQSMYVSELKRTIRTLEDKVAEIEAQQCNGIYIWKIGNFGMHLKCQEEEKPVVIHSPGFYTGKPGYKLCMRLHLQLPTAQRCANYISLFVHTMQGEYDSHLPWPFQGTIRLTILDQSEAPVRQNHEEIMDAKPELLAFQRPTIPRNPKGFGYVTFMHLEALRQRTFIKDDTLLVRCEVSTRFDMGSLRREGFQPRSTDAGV

B1: CMTM6 (in HCC827-CT cells) (other, human, UniProt Q9NX76 1-183, looked up)
chain: MENGAVYSPTTEEDPGPARGPRSGLAAYFFMGRLPLLRRVLKGLQLLLSLLAFICEEVVSQCTLCGGLYFFEFVSCSAFLLSLLILIVYCTPFYERVDTTKVKSSDFYITLGTGCVFLLASIIFVSTHDRTSAEIAAIVFGFIASFMFLLDFITMLYEKRQESQLRKPENTTRAEALTEPLNA

Assays:
MHC II = conditions: IFNγ stimulation
[1] = target: T1, Tumor necrosis factor …; experiment: co-immunoprecipitation and western blot, HCC827-CT cells

| Molecule | higher levels of surface MHC class II in CMTM4 KO cells (MHC II) | binding result [1] |
| --- | --- | --- |
| CCN(CC)CCCC(C)Nc1ccnc2cc(Cl)ccc12 (centres unmarked) [chloroquine] | abolished |  |
| B1 |  | no binding |
